Measured values taken from PubChem BioAssay (NCI).
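All cell lines were grown in 96-well plates and treated with compound for 48 hours. The concentration for full growth arrest is given as TGI.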

What was measured:
Test in all cases: NCI tumour cell line growth inhibition, 48 h
[1] = tested on: PC-3 prostate
[2] = tested on: HS 578T breast
[3] = tested on: CCRF-CEM leukemia
[4] = tested on: MALME-3M melanoma
[5] = tested on: A549 NSCLC
[6] = tested on: M14 melanoma
[7] = tested on: IGROV1 ovarian
[8] = tested on: UACC-257 melanoma
[9] = tested on: HCC-2998 colon
[10] = tested on: SK-OV-3 ovarian
[11] = tested on: COLO 205 colon
[12] = tested on: NCI-H226 lung
[13] = tested on: OVCAR-8 ovarian
[14] = tested on: SNB-19 CNS
[15] = tested on: OVCAR-3 ovarian
[16] = tested on: SNB-75 CNS
[17] = tested on: MOLT-4 leukemia
[18] = tested on: SF-268 CNS
[19] = tested on: NCI-H522 lung
[20] = tested on: T-47D breast
[21] = tested on: HCT-15 colon
[22] = tested on: HCT-116 colon
[23] = tested on: RXF 393 renal
[24] = tested on: HOP-92 NSCLC
[25] = tested on: TK-10 renal
[26] = tested on: SN12C renal
[27] = tested on: SF-295 CNS
[28] = tested on: RPMI-8226 leukemia
[29] = tested on: HT29 colon
[30] = tested on: HOP-62 NSCLC
[31] = tested on: OVCAR-5 ovarian
[32] = tested on: HL-60(TB) leukemia
[33] = tested on: SW-620 colon
[34] = tested on: UO-31 renal
[35] = tested on: 786-0 renal
[36] = tested on: DU-145 prostate
[37] = tested on: NCI-H460 lung
[38] = tested on: SK-MEL-28 melanoma
[39] = tested on: SK-MEL-2 melanoma
[40] = tested on: UACC-62 melanoma
[41] = tested on: MDA-MB-435
[42] = tested on: KM12 colon
[43] = tested on: SK-MEL-5 melanoma
[44] = tested on: BT-549 breast
[45] = tested on: MCF7 breast
[46] = tested on: EKVX NSCLC
[47] = tested on: NCI/ADR-RES ovarian
[48] = tested on: ACHN renal
[49] = tested on: U251 CNS
[50] = tested on: A498 renal
[51] = tested on: NCI-H23 lung
[52] = tested on: MDA-MB-231 breast
[53] = tested on: MDA-N
[54] = tested on: CAKI-1 renal
[55] = tested on: OVCAR-4 ovarian
[56] = tested on: K-562 leukemia
[57] = tested on: SR leukemia
[58] = tested on: LOX IMVI melanoma
[59] = tested on: SF-539 CNS

SMILES: COc1cc(/C=C2/C[C@H]3[C@@H]4CCC5=CC(=O)CC[C@]5(C)[C@H]4CC[C@]3(C)NC2=O)cc(OC)c1OC
- TGI [1]: > 100 µM
- TGI [2]: 73.9 µM
- TGI [3]: 64.4 µM
- TGI [4]: 72.2 µM
- TGI [5]: > 100 µM
- TGI [6]: > 100 µM
- TGI [7]: 94.7 µM
- TGI [8]: > 100 µM
- TGI [9]: > 100 µM
- TGI [10]: > 100 µM
- TGI [11]: 44.4 µM
- TGI [12]: > 100 µM
- TGI [13]: 70.7 µM
- TGI [14]: > 100 µM
- TGI [15]: > 100 µM
- TGI [16]: > 100 µM
- TGI [17]: > 100 µM
- TGI [18]: > 100 µM
- TGI [19]: 34 µM
- TGI [20]: 63 µM
- TGI [21]: > 100 µM
- TGI [22]: > 100 µM
- TGI [23]: 46.7 µM
- TGI [24]: 39.6 µM
- TGI [25]: 56.2 µM
- TGI [26]: > 100 µM
- TGI [27]: 77.7 µM
- TGI [28]: > 100 µM
- TGI [29]: > 100 µM
- TGI [30]: > 100 µM
- TGI [31]: 57.7 µM
- TGI [32]: 45.3 µM
- TGI [33]: > 100 µM
- TGI [34]: 26.8 µM
- TGI [35]: > 100 µM
- TGI [36]: > 100 µM
- TGI [37]: > 100 µM
- TGI [38]: > 100 µM
- TGI [39]: > 100 µM
- TGI [40]: > 100 µM
- TGI [41]: > 100 µM
- TGI [42]: > 100 µM
- TGI [43]: 52.4 µM
- TGI [44]: 53.7 µM
- TGI [45]: 88.9 µM
- TGI [46]: > 100 µM
- TGI [47]: > 100 µM
- TGI [48]: > 100 µM
- TGI [49]: 57.1 µM
- TGI [50]: 41.6 µM
- TGI [51]: 57.3 µM
- TGI [52]: 83.2 µM
- TGI [53]: > 100 µM
- TGI [54]: > 100 µM
- TGI [55]: > 100 µM

SMILES: N#CC(NC12CC3CC(CC(C3)C1)C2)c1ccccc1 (configuration not stated)
- TGI [1]: > 100 µM
- TGI [56]: > 100 µM
- TGI [2]: > 100 µM
- TGI [3]: > 100 µM
- TGI [4]: > 100 µM
- TGI [5]: > 100 µM
- TGI [6]: > 100 µM
- TGI [7]: > 100 µM
- TGI [8]: > 100 µM
- TGI [9]: > 100 µM
- TGI [57]: > 100 µM
- TGI [10]: > 100 µM
- TGI [11]: > 100 µM
- TGI [12]: > 100 µM
- TGI [13]: > 100 µM
- TGI [14]: > 100 µM
- TGI [15]: > 100 µM
- TGI [16]: > 100 µM
- TGI [17]: > 100 µM
- TGI [18]: > 100 µM
- TGI [19]: > 100 µM
- TGI [20]: > 100 µM
- TGI [21]: > 100 µM
- TGI [22]: > 100 µM
- TGI [23]: > 100 µM
- TGI [24]: > 100 µM
- TGI [25]: > 100 µM
- TGI [26]: > 100 µM
- TGI [27]: > 100 µM
- TGI [28]: > 100 µM
- TGI [29]: > 100 µM
- TGI [58]: > 100 µM
- TGI [30]: > 100 µM
- TGI [31]: > 100 µM
- TGI [32]: > 100 µM
- TGI [33]: > 100 µM
- TGI [34]: > 100 µM
- TGI [35]: > 100 µM
- TGI [36]: > 100 µM
- TGI [37]: > 100 µM
- TGI [59]: > 100 µM
- TGI [38]: > 100 µM
- TGI [39]: > 100 µM
- TGI [40]: > 100 µM
- TGI [41]: > 100 µM
- TGI [42]: > 100 µM
- TGI [43]: > 100 µM
- TGI [44]: > 100 µM
- TGI [45]: > 100 µM
- TGI [46]: > 100 µM
- TGI [47]: > 100 µM
- TGI [48]: > 100 µM
- TGI [49]: > 100 µM
- TGI [51]: > 100 µM
- TGI [52]: > 100 µM
- TGI [53]: > 100 µM
- TGI [54]: > 100 µM
- TGI [55]: > 100 µM

SMILES: O=P(O)(O)OP(=O)(O)O
- TGI [1]: > 100 µM
- TGI [56]: > 100 µM
- TGI [2]: > 100 µM
- TGI [3]: > 100 µM
- TGI [4]: > 100 µM
- TGI [5]: > 100 µM
- TGI [6]: > 100 µM
- TGI [7]: > 100 µM
- TGI [8]: > 100 µM
- TGI [9]: > 100 µM
- TGI [57]: > 100 µM
- TGI [10]: > 100 µM
- TGI [11]: > 100 µM
- TGI [13]: > 100 µM
- TGI [14]: > 100 µM
- TGI [15]: > 100 µM
- TGI [16]: > 100 µM
- TGI [17]: > 100 µM
- TGI [18]: > 100 µM
- TGI [19]: > 100 µM
- TGI [20]: > 100 µM
- TGI [21]: > 100 µM
- TGI [22]: > 100 µM
- TGI [23]: > 100 µM
- TGI [24]: > 100 µM
- TGI [25]: > 100 µM
- TGI [26]: > 100 µM
- TGI [28]: > 100 µM
- TGI [29]: > 100 µM
- TGI [58]: > 100 µM
- TGI [30]: > 100 µM
- TGI [31]: > 100 µM
- TGI [32]: > 100 µM
- TGI [33]: > 100 µM
- TGI [34]: > 100 µM
- TGI [35]: > 100 µM
- TGI [36]: > 100 µM
- TGI [37]: > 100 µM
- TGI [59]: > 100 µM
- TGI [38]: > 100 µM
- TGI [39]: > 100 µM
- TGI [40]: > 100 µM
- TGI [41]: > 100 µM
- TGI [42]: > 100 µM
- TGI [43]: > 100 µM
- TGI [44]: > 100 µM
- TGI [45]: > 100 µM
- TGI [46]: > 100 µM
- TGI [47]: > 100 µM
- TGI [48]: > 100 µM
- TGI [49]: > 100 µM
- TGI [50]: > 100 µM
- TGI [51]: > 100 µM
- TGI [52]: > 100 µM
- TGI [53]: > 100 µM
- TGI [54]: > 100 µM
- TGI [55]: > 100 µM

SMILES: CN(C)C/C=C(/c1ccc(Br)cc1)c1cccnc1
- TGI [1]: > 100 µM
- TGI [56]: > 100 µM
- TGI [2]: > 100 µM
- TGI [4]: 44.1 µM
- TGI [5]: > 100 µM
- TGI [6]: 37.2 µM
- TGI [7]: > 100 µM
- TGI [8]: 35.3 µM
- TGI [9]: 29.8 µM
- TGI [57]: > 100 µM
- TGI [10]: > 100 µM
- TGI [11]: 32.4 µM
- TGI [12]: > 100 µM
- TGI [13]: > 100 µM
- TGI [14]: > 100 µM
- TGI [15]: > 100 µM
- TGI [16]: > 100 µM
- TGI [17]: > 100 µM
- TGI [18]: > 100 µM
- TGI [19]: > 100 µM
- TGI [20]: > 100 µM
- TGI [21]: > 100 µM
- TGI [22]: > 100 µM
- TGI [23]: > 100 µM
- TGI [24]: > 100 µM
- TGI [25]: > 100 µM
- TGI [26]: > 100 µM
- TGI [27]: 63.5 µM
- TGI [28]: > 100 µM
- TGI [29]: > 100 µM
- TGI [30]: > 100 µM
- TGI [31]: > 100 µM
- TGI [32]: 0.0516 µM
- TGI [33]: > 100 µM
- TGI [34]: > 100 µM
- TGI [35]: > 100 µM
- TGI [36]: > 100 µM
- TGI [37]: > 100 µM
- TGI [59]: > 100 µM
- TGI [38]: 34.1 µM
- TGI [39]: 37.6 µM
- TGI [40]: 39.1 µM
- TGI [41]: > 100 µM
- TGI [42]: > 100 µM
- TGI [43]: 45.5 µM
- TGI [44]: > 100 µM
- TGI [45]: > 100 µM
- TGI [46]: > 100 µM
- TGI [47]: > 100 µM
- TGI [48]: > 100 µM
- TGI [49]: > 100 µM
- TGI [50]: 57.8 µM
- TGI [51]: > 100 µM
- TGI [52]: > 100 µM
- TGI [53]: > 100 µM
- TGI [54]: > 100 µM
- TGI [55]: > 100 µM
